Structures can show the parent of a compound that is named as a salt.
Assays:
[1] = tested on: cholesterol 7α-hydroxylase (CYP7A) mRNA; experiment: Liver cholesterol 7α-hydroxylase (CYP7A) mRNA in treated hamsters, real-time PCR; type: in vivo, hamster; conditions: 100 mg/kg, 2 weeks, p<0.01
Excerpt: The conversion of cholesterol to bile acids by the liver and their subsequent excretion in the feces represent a major route for the elimination of sterol from the body. The cholesterol 7α-hydroxylase is the first and rate-limiting enzyme in the bile acid biosynthetic pathway. The measurement of the mRNA expression level of cholesterol 7α-hydroxylase (CYP7A) is widely used as a means to monitor bile acid synthesis in liver. To assess the effect of Compound 162 on liver bile acid synthesis, the mRNA levels of CYP7A were measured in vehicle and liver samples from hamsters treated with 100 mg/kg Compound 162 by real-time PCR as described above.

[2] = tested on: liver PCSK9 mRNA; experiment: Liver PCSK9 mRNA in treated hamsters, quantitative real-time RT-PCR; type: in vivo, hamster; conditions: 100 mg/kg, 2 weeks, 10 animals per group
Experimental: To directly correlate the LDL-C and VLDL-C lowering effects of Compound 162 with its ability to upregulate hepatic LDLR expression and down-regulation of PCSK9, at the end of treatment, animals from vehicle and Compound 162 100 mg/kg treated groups were euthanized and levels of liver LDLR and PCSK9 mRNA were individually assessed by quantitative real-time RT-PCR using hamster specific probes. The results represent mean±SEM of 10 animals per group. The liver expression of LDLR mRNA was increased 1.7-fold over control by Compound 162 treatment (p<0.001). […] Thus, these in vivo data confirmed the in vitro effects of Compound 162 in upregulating LDLR mRNA while inhibiting PCSK9 mRNA expressions.

[3] = tested on: LDLR protein expression in HepG2 cells; experiment: Western blot of LDLR protein in HepG2 cells, Compounds 162 and 163; type: cell-based, human; conditions: 20 μM, 16 or 24 hours, FIG. 7
Experimental: (§1) FIG. 7 is a Western blot analysis of LDLR and PCSK9 expression in HepG2 cells. HepG2 cells seeded in 12-well culture plates were cultured in 0.5% FBS MEM overnight. Compounds 162 and 163 at 20 μM were added to cells for the indicated times. Untreated and treated cells were harvested at the same indicated time points. Total cell lysates were isolated and 50 μg per sample was analyzed for LDLR and PCSK9 protein abundance by western blotting. The membrane was reprobed with anti-actin antibody to examine the equal loading of cell lysates.
Chicken anti-LDLR was purchased from Abcam. HepG2 cells cultured in 60-mm dishes were incubated overnight in medium containing 0.5% fetal bovine serum prior to the addition of compounds at 20 μM concentration. After 16 or 24 hours of treatment, total cell lysate was isolated and 50 μg of protein was separated on SDS-PAGE and transferred to nitrocellulose membrane for immunoblotting with anti-LDLR.

[4] = tested on: PCSK9 protein expression in HepG2 cells; experiment: Western blot of PCSK9 protein in HepG2 cells, Compounds 162 and 163; type: cell-based, human; conditions: 20 μM, time-dependent, FIG. 7
Experimental: as §1
Recent studies have identified the liver secreted serine protease PCSK9 (proprotein convertase subtilisin type 9) as a natural inhibitor of LDLR protein expression that degrades hepatic LDLR protein, thus increasing circulating LDL-C levels.

COc1cc2c(cc1OC)C1Cc3ccc(OC)c(OS(=O)(=O)c4cccc(F)c4)c3CN1CC2 (single isomer, unassigned) [Compound 162, 2,3,10-Trimethoxy-5,6,7,8,13,13a-hexahydroisoquinolino[2,1-b]isoquinolin-9-yl 3-fluorobenzenesulfonate phosphate Salt (Enantiomer having positive optical rotation)]
CPY7A mRNA expression in liver versus vehicle control [1]: 2.7 fold | liver mRNA levels of PCSK9 [2]: 57 % of vehicle control | LDLR mRNA and protein expression [3]: significantly enhance | PCSK9 cellular levels [4]: greatly decreased

From patent US20110009628A1, “Compounds and Compositions for Modulating Lipid Levels and Methods of Preparing Same” (priority 2009, published 2011)
